Source: ChEMBL document CHEMBL6153030, “Design, synthesis, and biological evaluation of novel pleuromutilin derivatives with methicillin-resistant Staphylococcus aureus -targeting phenol linker groups” (Eur J Med Chem, 2025)
Converted amounts (≈) assume the structure as drawn. The source made the active and inactive calls. The rule behind the calls is not given here.

How the values were obtained:
[1] = system: Staphylococcus aureus; assay: Antibacterial activity against Staphylococcus aureus ATCC 29213 assessed as inhibition of bacterial growth incubated for 96 hrs by broth microdilution method; format: functional
[2] = system: Staphylococcus aureus; assay: Antibacterial activity against methicillin-resistant Staphylococcus aureus ATCC43300 assessed as inhibition of bacterial growth incubated for 96 hrs by broth microdilution method; format: functional
[3] = system: Streptococcus pneumoniae; assay: Antibacterial activity against Streptococcus pneumoniae ATCC 49619 assessed as inhibition of bacterial growth incubated for 96 hrs by broth microdilution method; format: functional
[4] = system: Staphylococcus epidermidis; assay: Antibacterial activity against methicillin-resistant Staphylococcus epidermidis ATCC 51625 assessed as inhibition of bacterial growth incubated for 96 hrs by broth microdilution method; format: functional
[5] = system: Escherichia coli; assay: Antibacterial activity against Escherichia coli ATCC 25922 assessed as inhibition of bacterial growth incubated for 96 hrs by broth microdilution method; format: functional
[6] = system: Staphylococcus aureus; assay: Bactericidal activity against methicillin-resistant Staphylococcus aureus ATCC43300 assessed as bacterial killing at 3XMIC incubated for 96 hrs in broth followed by culturing on agar plate for 4 hrs by time-kill kinetics analysis; format: functional; details: time 100 hrs
[7] = system: Staphylococcus aureus; assay: Bactericidal activity against methicillin-resistant Staphylococcus aureus ATCC 43300 assessed as log reduction of bacterial colonies at 3XMIC incubated for 96 hrs in broth followed by culturing on agar plate for 4 hrs by time-kill kinetics analysis; format: functional; details: time 100 hrs
[8] = system: Staphylococcus aureus; assay: Bactericidal activity against methicillin-resistant Staphylococcus aureus ATCC 43300 assessed as bacterial killing at 6XMIC incubated for 96 hrs in broth followed by culturing on agar plate for 12 hrs by time-kill kinetics analysis; format: functional; details: time 108 hrs
[9] = system: Staphylococcus aureus; assay: Antibacterial activity against methicillin-resistant Staphylococcus aureus ATCC43300 assessed as inhibition of bacterial growth measured after 17 to 18 days; format: functional; details: time 17-18 day
[10] = Toxicity against Zebrafish assessed as reduction of survival of embryos measured after 96 hrs; design: species or system Danio rerio; details: in vivo
[11] = Toxicity against zebrafish embryo assessed as teratogenic effect at 128 ug/ml measured after 96 hrs by microscopic analysis; design: species or system Danio rerio; details: in vivo, dose 128 µg/ml
[12] = system: HEK293; assay: Cytotoxicity against HEK293 cells assessed as reduction in cell survival upto 120 ug/ml incubated for 6 hrs by CCK8 assay; format: toxicity, cell-based; details: human, hek293, 6 h, dose < 120 µg/ml
[13] = system: HepG2; assay: Cytotoxicity against human HepG2 cells assessed as reduction in cell survival at 250 ug/ml incubated for 6 hrs by CCK8 assay; format: toxicity, cell-based; details: hepg2, 6 h, dose 250 µg/ml
[14] = Toxicity against rabbit red blood cells assessed as hemolysis rate at 100 ug/ml by absorbance based analysis; format: cell-based, Oryctolagus cuniculus, Erythrocyte; details: at 100 µg/mL, read-out: Activity
[15] = molecular target: T1, 70S ribosome (Staphylococcus aureus) (UniProt Q2FW31+P0A0H0+Q2FW30+Q2FW19+Q2FYU5+Q2G2Q1+Q2FZ45+Q2FW15+Q2G111+Q2FW10+Q2FXY6+Q2FXZ7+Q2FZ25+Q2FW12+Q2FXK6+Q2FW23+Q2G113+P48940+Q2FW20+Q2FW39+Q2FYF9+Q2G0N9+P0A0F4+Q2FW38+Q2FW16+P0A0F8+Q2FW13+Q2FW33+Q2FW22+Q2FZ42+Q2G0P0+Q2FXQ1+Q2FXS8+Q2FW11+Q2FW08+Q2FW17+Q2FXT0+Q2FZ60+Q2FW14+P60430+P0A0G2+Q2FWD8+Q2FZF1+Q2FYU6+Q2FY22+Q2FUQ0+Q2FXQ0+Q2FW29+Q2FW06+Q2FW07+Q2FW18+Q2FW21+P48860+Q2G2T3); assay: Inhibition of ribosomal peptidyl transferase centre in methicillin-resistant Staphylococcus aureus ATCC43300 assessed as inhibition of bacterial cell division at 4XMIC by scanning electron microscopy; format: functional
[16] = molecular target: T1, 70S ribosome (Staphylococcus aureus); assay: Inhibition of ribosomal peptidyl transferase centre in methicillin-resistant Staphylococcus aureus ATCC43300 assessed as bacterial cell rupture at 4XMIC by scanning electron microscopy; format: functional
[17] = system: Staphylococcus aureus; assay: In vivo antibacterial activity against methicillin-resistant Staphylococcus aureus ATCC43300 infected in Kunming mouse assessed as increase in animal survival rate administered ip at 1 hr post-infection; format: functional; details: ATCC43300, 1 h
[18] = system: Staphylococcus aureus; assay: In vivo antibacterial activity against methicillin-resistant Staphylococcus aureus ATCC43300 infected in Kunming mouse assessed as decrease in lung lesions by measuring reduced congestion, hemorrhage and inflammatory cell infiltration at 40 mg/kg, ip administered at 1 hr post-infection; format: functional, organism-based
[19] = system: Staphylococcus aureus; assay: In vivo antibacterial activity against methicillin-resistant Staphylococcus aureus ATCC43300 infected in Kunming mouse assessed as decrease in bacterial load in lungs at 20 to 40 mg/kg, ip administered at 1 hr post-infection; format: functional, organism-based; details: dose 20-40 mg/kg
[20] = system: Staphylococcus aureus; assay: In vivo antibacterial activity against methicillin-resistant Staphylococcus aureus ATCC43300 infected in Kunming mouse assessed as log reduction of bacterial load in lungs at 40 mg/kg, ip administered at 1 hr post-infection and measured within 48 hrs; format: functional
[21] = system: Staphylococcus aureus; assay: Antibacterial activity against methicillin-resistant Staphylococcus aureus ATCC43300 assessed as inhibition of bacterial growth measured after 21 days; format: functional; details: ATCC43300, 504 h, time 21 day
[22] = molecular target: T1, 70S ribosome (Staphylococcus aureus); assay: Inhibition of ribosomal peptidyl transferase centre in methicillin-resistant Staphylococcus aureus ATCC43300 assessed as bacterial cell membrane damage at 4XMIC by scanning electron microscopy; format: functional
[23] = system: Staphylococcus aureus; assay: Antibacterial activity against methicillin-resistant Staphylococcus aureus ATCC43300 assessed as inhibition of bacterial growth measured on day 8; format: functional; details: ATCC43300, 192 h, time 8 day
[24] = system: Staphylococcus aureus; assay: Antibacterial activity against methicillin-resistant Staphylococcus aureus ATCC43300 assessed as inhibition of bacterial growth measured on day 20; format: functional; details: ATCC43300, 480 h, time 20 day

Row | Compound | MIC [1] [µg/mL] | MIC [2] [µg/mL] | MIC [3] [µg/mL] | MIC [4] [µg/mL] | MIC [5] [µg/mL] | Activity [8] [%] | LC50 at 96 h [10] [µg/mL] | Activity [11] | Activity [12] | Activity [13] | inhibition [15] | ED50 [17] [mg/kg] | other results
1 | C=C[C@]1(C)C[C@@H](OC(=O)CSc2ccccc2OCC(=O)N2CCS(=O)(=O)CC2)[C@]2(C)[C@H](C)CC[C@]3(CCC(=O)[C@H]32)[C@@H](C)[C@@H]1O | < 0.031 | < 0.031 | 0.125 (≈ 0.189 µM) | < 0.031 | > 64 | 99.99 | 165 (≈ 249 µM) | Non-toxic | Toxic | Toxic | Active | 6.48 | Activity [6]: 99.9%; Activity [7]: -3.154 log10CFU/ml; MIC [9]: 8 µg/mL (≈ 12.1 µM); hemolysis at 100 ug/ml [14]: < 15%; inhibition [16]: Active; Activity [18]: Active; Activity [19]: Dose-dependent-effect; Activity [20]: 3 log10CFU/ml
2 | C=C[C@]1(C)C[C@@H](OC(=O)CSc2cccc(OCC(=O)N3CCS(=O)(=O)CC3)c2)[C@]2(C)[C@H](C)CC[C@]3(CCC(=O)[C@H]32)[C@@H](C)[C@@H]1O | < 0.031 | < 0.031 | 0.125 (≈ 0.189 µM) | < 0.031 | > 64 | 99.99 | 149 (≈ 225 µM) | Non-toxic | Toxic | Toxic | Active |  | MIC [21]: 4 µg/mL (≈ 6.04 µM); inhibition [22]: Active
3 | C=C[C@]1(C)C[C@@H](OC(=O)CSCCN(CC)CC)[C@]2(C)[C@H](C)CC[C@]3(CCC(=O)[C@H]32)[C@@H](C)[C@@H]1O [TIAMULIN] | 0.5 (≈ 1.01 µM) | 0.5 (≈ 1.01 µM) | 0.5 (≈ 1.01 µM) | 0.25 (≈ 0.506 µM) | > 64 |  | 24 (≈ 48.6 µM) |  | Toxic | Toxic |  | 11.4 | MIC [23]: 8 µg/mL (≈ 16.2 µM); MIC [24]: 32 µg/mL (≈ 64.8 µM)
